From paper PMC10769324 (bioRxiv, 2024)

Tests used:
[1] = biological target: T1, 5-HT2A (Homo sapiens, UniProt P28223); format: binding; conditions: [3H]-LSD 0.5 nM, HEK293 membranes; for log(Ki): printed as log(Ki) with negative sign
[2] = biological target: T1, 5-HT2A; conditions: Gαq dissociation vs β-arrestin2 recruitment, versus 5-HT

T1 sequence (P28223 whole entry): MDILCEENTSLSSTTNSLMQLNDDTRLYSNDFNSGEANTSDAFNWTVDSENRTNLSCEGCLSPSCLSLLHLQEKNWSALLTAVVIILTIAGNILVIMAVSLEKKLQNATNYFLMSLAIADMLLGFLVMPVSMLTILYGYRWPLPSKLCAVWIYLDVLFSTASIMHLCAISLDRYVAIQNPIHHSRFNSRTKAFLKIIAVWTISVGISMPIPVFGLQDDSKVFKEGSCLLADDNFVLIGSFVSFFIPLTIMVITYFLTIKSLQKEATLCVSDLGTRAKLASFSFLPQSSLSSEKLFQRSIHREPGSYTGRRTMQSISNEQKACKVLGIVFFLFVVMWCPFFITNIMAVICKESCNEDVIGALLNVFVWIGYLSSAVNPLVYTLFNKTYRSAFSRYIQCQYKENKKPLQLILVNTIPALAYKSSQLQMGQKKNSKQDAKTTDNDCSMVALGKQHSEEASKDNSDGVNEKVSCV

SMILES	log(Ki) [1]	Ki [1] [nM]	Apparent Bias Factor [2]
COc1ccc(COCCN(C)C(C)Cc2ccc(O)cc2)cc1 (stereo not shown) [Compound Z1441676226]	−6.77 ± 0.087		
C=CCNC(=O)C(C)N1CCCC(c2ccc(O)cc2)C1 (stereo not shown) [Compound Z3517963976]	−6.95 ± 0.085	113	
NCC1Cc2cc(F)ccc2N(C(=O)Cc2cc(F)ccc2Br)C1 (stereo not shown) [Compound Z7704262288]		15	
Clc1ccc(C#CCN2CCCC(c3ccn[nH]3)C2)cc1 (stereo not shown) [Compound Z1348472291]	−6.65 ± 0.083		
O=C(c1cc(C2CCNC2)[nH]n1)N1CCC(c2cccc(Cl)c2)C1 (stereo not shown) [Compound Z3808146201]	−6.51 ± 0.096		
CC(C)C(N)CCN(C)C(=O)C(=O)Nc1cc2ccccc2cc1Cl (stereo not shown) [Compound Z5247694451]	−7.15 ± 0.073		
Cc1cccc(OCCCC(=O)N2CCNCc3ccccc32)c1 [Compound Z2393190959]	−6.51 ± 0.085		
NCCc1c[nH]c2ccc(O)cc12 [serotonin]			1.0
C=C/C=C/CCN1CCC(O)(c2cccc(Br)c2)C1 (stereo not shown) [Compound Z5247693129]	−6.49 ± 0.094		
c1ccc(O[C@H]2CCN(Cc3ccc(-c4ccn[nH]4)o3)C2)cc1 [Compound Z2449215308]	−6.79 ± 0.100	162	
COc1ccccc1CC1CCN(CC(=O)c2cc(C)[nH]c2C)C1 (stereo not shown) [Compound Z7619689903]	−6.46 ± 0.086	344	
CN(C(=O)c1cn[nH]n1)C1CCN(CCc2cccc(Cl)c2Cl)C1 (stereo not shown) [Compound Z7619689892]	−7.78 ± 0.077	17	
NC1Cc2ccccc2N(Cc2cc(O)cc(Br)c2)C1 (stereo not shown) [Compound Z7619689909]	−7.14 ± 0.078	72	
Oc1ccc(C2=CCN(CC3CC34CC4)CC2)cc1 (stereo not shown) [Compound Z2945615615]	−7.62 ± 0.104	24	
CCN(Cc1cc(Br)ccc1O)C(=O)C(N)Cc1ccco1 (stereo not shown) [Compound Z3865153101]	−6.94 ± 0.099	114	
